The values that follow come from patent US11054425B2, “System and method for identification and characterization of transglutaminase species” (Roche Sequencing Solutions, Inc., priority 2014, dated 2021).

No end group written: not given here. *: point of attachment. Cbz = O=C(OCc1ccccc1)*

What all share (type): biochemical, Kutzneria albida
In assay [1] the test system is KalbTG. Put plainly: GLDH-coupled assay in solution (NADH oxidation). Particulars: NADH oxidation at 340 nm, 37° C. The method, then:
KalbTG activity was obtained by measuring incorporation of a biotinylated amine-donor on the peptide array and rates of NADH oxidation at 340 nm and 37° C. in the presence of amine-donor substrate (500 μM) in the GLDH-coupled assay using 100 μM each of nine of the best-performing array-selected glutamine-containing substrates and of two S. mobaraensis MTG glutamine-containing substrates. […] Testing of the top sequences in Table 1 confirmed YRYRQ (SEQ ID NO: 1) and RYRQR (SEQ ID NO 14) as the top performing 5-mer substrates, with turnover rates of 3.52±0.08 pmol NADH s^−1 and 3.60±0.12 pmol NADH s^−1, respectively.
With reference to Table 2, KalbTG activity was obtained by measuring incorporation of a biotinylated glutamine-donor and rates of NADH oxidation at 340 nm and 37° C. in the presence of glutamine-donor substrate (200 μM) in the GLDH-coupled assay using 100 μM each of i) six of the top-performing array-selected lysine substrates, ii) cadaverine, and iii) preferred MTG lysine substrate ARSKL (SEQ ID NO:30). […] This is a small but significant increase over cadaverine (3.51±0.12 pmol s^−1) or ARSKL (SEQ ID NO:30) (3.87±0.31 pmol s^−1), a peptide previously established as a preferred MTG lysine donor motif on the peptide array. Additional details on the S. mobaraensis MTG substrate peptide ARSKL (SEQ ID NO:30) can be found in U.S. Provisional Patent Application Ser. No. 62/094,495 to Albert et al. filed on Dec. 19, 2014.
For the GLDH coupled assay, to determine whether the KalbTG peptides selected in the array assay were also preferred substrates in a solution reaction and to quantify cross-reactivity of KalbTG and S. mobaraensis MTG with various substrates, a continuous glutamate dehydrogenase (GLDH)-coupled assay for S. mobaraensis MTG activity (see Oteng-Pabi, et al., 2013. Analytical biochemistry 441(2): 169-173) was applied.
For glutamine substrate evaluation, the assay was performed in a transparent 96-well microtiter plate in the presence of 500 μM α-ketoglutarate, 500 μM or 1 mM cadaverine as Amine donor substituting for a lysine-containing peptide, 2 U ml^−1 of glutamate dehydrogenase (GLDH), 500 μM NADH and glutamine-containing substrate peptide (Z-[[…] (SEQ ID NO:77)], Z-[[…] (SEQ ID NO:78)], Z-[[…] (SEQ ID NO:75)], Z-[[…] (SEQ ID NO:79)], Z-[[…] (SEQ ID NO:80)], Z-[[…] (SEQ ID NO:81)], Z-[[…] (SEQ ID NO:82)], Z-[[…] (SEQ ID NO:83)], Z-[[…] (SEQ ID NO:84)], Z-[[…] (SEQ ID NO:85)], Z-[[…] (SEQ ID NO:86)], Z-[[…] (SEQ ID NO:76)] or Z-[[…] (SEQ ID NO:87)]) concentrations ranging between 0 and 1 mM in 200 mM MOPS, 1 mM EDTA pH 7.2 (total volume per well 200 μl).
For amine substrate evaluation, assay conditions were the same as for glutamine substrate evaluation with the exception that 100 μM each of amine substrate (Z-[[…] (SEQ ID NO:88)], Z-[[…] (SEQ ID NO:89)], Z-[[…] (SEQ ID NO:90)], Z-[[…] (SEQ ID NO:91)], Z-[[…] (SEQ ID NO:92)], Z-[[…] (SEQ ID NO:93)], Z-[[…] (SEQ ID NO:94)], Z-[[…] (SEQ ID NO:95)] or cadaverine) and 200 μM glutamine donor (Z-[[…] (SEQ ID NO:75)] or Z-[[…] (SEQ ID NO:76)]) were used.
Reactions were started by the addition of 5 μg ml^−1 of S. mobaraensis MTG or KalbTG and the oxidation of NADH was continuously recorded at 340 nm for 60 minutes using a Biotek Synergy H4 microplate reader, temperature controlled at 37° C., with short shaking intervals before each measurement. After a short lag phase where the GLDH was saturated by transglutaminase-mediated release of ammonia, linear rates of absorbance versus time corresponding to transglutaminase turnover were observed and subjected to Michaelis-Menten kinetic analysis. […]

Assay [2] deals with KalbTG. Nature of the assay: 5-mer peptide array, lysine-substrate screening with biotinylated glutamine donor. Particulars: incorporation of biotinylated glutamine-donor on 5-mer peptide array. The source says:
A second round of maturation on the peptide array yielded […] (SEQ ID NO:24) as the top performing 9-mer substrate, which was then resynthesized as biotinylated peptide to act as acyl donor for the discovery of optimized lysine recognition motifs back on the 5-mer peptide array (FIG. 4B). Again, six of the best lysine-containing peptides were resynthesized and tested in the KalbTG in-solution activity assay using a peptide containing the optimized glutamine recognition sequence YRYRQ (SEQ ID NO:1) as an acyl donor (Table 2). It will be appreciated that calculation of an array signal for cadaverine was not applicable due to omission of cadaverine from the array.
(§1) For construction of the peptide array, a library of 1,360,732 unique 5-mer peptides was designed by using all combinations of 18 natural amino acids excluding cysteine and methionine, as well as any dimer or a longer repeat of the same amino acid, and any peptide containing a dipeptide selected from HR, RH, HK, KH, RK, KR, HP, and PQ sequences. The library was synthesized in duplicate on the same array by using maskless light-directed peptide array synthesis. Each 5-mer peptide was flanked on both the N-terminus and C-terminus by 3 amino acid-long linkers synthesized by using mixture of glycine and serine having a 3:1 ratio.
In order to test KalbTG specificity for lysine substrates, chemically synthesized Z-[[…] (SEQ ID NO:31)]-PEG-Biotin peptide—which includes the sequence […] (SEQ ID NO:31)—was used as a glutamine-containing substrate to biotinylate lysine-containing peptides. Array biotinylation was done as described above with 0.1 ng μl^−1 KalbTG, 0.8 μM peptide at 37° C. for 15 minutes. Note that the a “Z—” in front of a peptide or other like construct is used herein to represent a carboxybenzyl group unless stated otherwise.
Target sequence in this assay (as listed by the source): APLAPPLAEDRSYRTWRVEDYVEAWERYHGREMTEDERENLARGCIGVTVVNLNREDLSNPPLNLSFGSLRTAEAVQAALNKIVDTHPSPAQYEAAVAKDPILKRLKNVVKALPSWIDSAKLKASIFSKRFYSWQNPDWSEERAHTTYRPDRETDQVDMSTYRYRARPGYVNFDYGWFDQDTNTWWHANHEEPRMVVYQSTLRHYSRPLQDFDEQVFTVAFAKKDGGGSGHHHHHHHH

Assay [3] deals with KalbTG. Put plainly: 5-mer peptide array, glutamine-substrate screening with biotinylated amine donor. Particulars: incorporation of biotinylated amine-donor on 5-mer peptide array. The method, then:
To identify potential acyl-donor and amine-donor substrates of the K. albida transglutaminase, high-throughput screening on 5-mer peptide arrays was performed (FIGS. 4A and 4B). An activity of at least 1.65 U/mg for both the SlyD-fused and the mature KalbTG enzymes was confirmed by commercial assay (Zedira MTG-ANiTA-KIT; compared to 4.3 U mg^−1 by the MTG supplied with the kit and a 0.07 U/mg blank value with BSA). The assay used β-casein as a cross-linking substrate and detected deamidation by a glutamate dehydrogenase dependent oxidation of NADPH. Specific recognition motifs were identified by assaying KalbTG with peptide arrays prepared by maskless array synthesis (U.S. Pat. Pub. No 2015/0185216 to Albert et al. filed on 19 Dec. 2014). The efficiency of the transamidation reaction between 1.4 million unique 5-mer peptides and a biotinylated amine donor was quantified on two arrays in parallel and the sequences of the peptides with the highest turnovers were determined (FIG. 4A). The nine best peptides were resynthesized and tested for KalbTG activity in a standalone GLDH-coupled assay. Note that the array signal for the sequence MLAQG (SEQ ID NO:13) is marked not applicable (n. a.) as this sequence was not included on the array. Similarly, measurement of a background signal was only applicable to experiments performed on the array.
as §1
Target sequence in this assay (as listed by the source): as above
To test KalbTG specificity for glutamine-containing substrate, N-(biotinyl)cadaverine was used as a substitute for a lysine substrate to biotinylate glutamine-peptides on a peptide array. KalbTG labeling reaction was performed in 1200 μL 100 mM Tris-HCl pH 8, 1 mM DTT, 50 μM N-(biotinyl)cadaverine, 0.2 ng μl^−1 KalbTG in SecureSeal™ chamber (Grace Bio-Labs) at 37° C. for 45 minutes. After incubation the chamber was removed and the array was washed in 20 mM Tris-HCl, pH7.8, 0.2 M NaCl, 1% SDS for 1 minute followed by a 1 minute wash in 20 mM Tris-HCl. Biotin linked to the array was stained with 0.3 μg ml^−1 Cy5-streptavidin in 10 mM Tris-HCl, pH7.4, 1% alkali-soluble casein, 0.05% TWEEN-20 non-ionic detergent at room temperature for 1 hour. Cy5 fluorescence intensity was measured with a fluorescence scanner at a resolution of 2 μm and a wavelength of 635 nm.

[4] abbreviates: 100 μM amine substrate, 200 μM glutamine-donor substrate.
The mark [5] stands for this setting: 100 μM glutamine-containing substrate, 500 μM amine-donor substrate.

Regarding `NCCCCCN` [Cadaverine, reference compound], the “Reaction rate in solution” value with KalbTG [1] (setting [4]) worked out at 3.51 ± 0.12 pmol/s; with KalbTG [1] (100 μM amine substrate, 200 μM glutamine-donor substrate, listed as cadaverine), 3.51 ± 0.12 pmol/s.

As to “ARSKL (Cbz-ARSKL) [preferred MTG lysine substrate, reference compound]”, the “Array signal (log2)” value in the assay with KalbTG [2] came out at 12.0 log2. In addition, the “Reaction rate in solution” value with KalbTG [1] (setting [4]) worked out at 3.87 ± 0.31 pmol/s.

Regarding AYRTK (Cbz-AYRTK) [KalbTG lysine 5-mer], in the assay with KalbTG [2], the “Array signal (log2)” value is recorded as 12.57 log2. Further, the “Reaction rate in solution” value in the assay with KalbTG [1] (setting [4]) turned out to be 3.65 ± 0.17 pmol/s.

As for “FRQRG (Cbz-FRQRG) [KalbTG glutamine-donor 5-mer]”, the “Array signal (log2)” value in the assay on KalbTG [3] stood at 8.82 log2. Also, in the assay on KalbTG [1] (setting [5]), the “Reaction rate in solution” value is reported as 2.11 ± 0.13 pmol/s.

Regarding “FRQRQ (Cbz-FRQRQ) [KalbTG glutamine-donor 5-mer]”, the “Array signal (log2)” value with KalbTG [3] is reported as 8.93 log2. In addition, in the assay on KalbTG [1] (setting [5]), the “Reaction rate in solution” value is given as 3.07 ± 0.17 pmol/s.

Turning to “QRQRQ (Cbz-QRQRQ) [KalbTG glutamine-donor 5-mer]”, the “Array signal (log2)” value in the assay on KalbTG [3] is on record as 8.77 log2. In the assay with KalbTG [1] (setting [5]), the “Reaction rate in solution” value is given as 2.98 ± 0.01 pmol/s.

As for “QYRQR (Cbz-QYRQR) [KalbTG glutamine-donor 5-mer]”, in the assay with KalbTG [3], the “Array signal (log2)” value worked out at 8.70 log2. Further, the “Reaction rate in solution” value with KalbTG [1] (setting [5]) was determined as 1.92 ± 0.07 pmol/s.

Regarding “RQRQR (Cbz-RQRQR) [KalbTG glutamine-donor 5-mer]”, in the assay on KalbTG [3], the “Array signal (log2)” value was 8.84 log2. The “Reaction rate in solution” value in the assay on KalbTG [1] (setting [5]) was 2.06 ± 0.08 pmol/s.

As for “RYESK (Cbz-RYESK) [KalbTG lysine (K-tag) 5-mer]”, the “Array signal (log2)” value in the assay with KalbTG [2] worked out at 12.65 log2. Besides, the “Reaction rate in solution” value with KalbTG [1] (setting [4]) was determined as 4.47 ± 0.16 pmol/s.

On to RYGKS (Cbz-RYGKS) [KalbTG lysine 5-mer], for which the “Array signal (log2)” value in the assay with KalbTG [2] came out at 12.38 log2. The “Reaction rate in solution” value with KalbTG [1] (setting [4]) came to 2.66 ± 0.11 pmol/s.

For the molecule “RYRQR (Cbz-RYRQR) [KalbTG glutamine-donor 5-mer]”, in the assay on KalbTG [3], the “Array signal (log2)” value was found to be 8.96 log2. Besides, the “Reaction rate in solution” value in the assay with KalbTG [1] (setting [5]) came out at 3.60 ± 0.12 pmol/s.

In the case of RYRSK (Cbz-RYRSK) [KalbTG lysine 5-mer], the “Array signal (log2)” value with KalbTG [2] amounted to 12.45 log2. For the same molecule, the “Reaction rate in solution” value with KalbTG [1] (setting [4]) was determined as 3.26 ± 0.10 pmol/s.

Turning to “RYSKY (Cbz-RYSKY) [KalbTG lysine (amine-donor) 5-mer]”, in the assay on KalbTG [2], the “Array signal (log2)” value is listed as 12.75 log2. For the same molecule, the “Reaction rate in solution” value in the assay with KalbTG [1] (setting [4]) was found to be 3.89 ± 0.04 pmol/s.

With “RYSQR (Cbz-RYSQR) [KalbTG glutamine-donor 5-mer]”, the “Array signal (log2)” value in the assay with KalbTG [3] came to 8.93 log2. Besides, in the assay with KalbTG [1] (setting [5]), the “Reaction rate in solution” value was found to be 3.22 ± 0.10 pmol/s.

As to YKGRG (Cbz-YKGRG) [KalbTG lysine 5-mer], the “Array signal (log2)” value in the assay on KalbTG [2] was found to be 12.25 log2. Further, the “Reaction rate in solution” value in the assay with KalbTG [1] (setting [4]) was 3.01 ± 0.09 pmol/s.

As for “YKYRQ (Cbz-YKYRQ) [KalbTG glutamine-donor 5-mer, lysine-containing]”, the “Array signal (log2)” value in the assay with KalbTG [3] came out at 8.70 log2. Besides, the “Reaction rate in solution” value with KalbTG [1] (setting [5]) was 4.00 ± 0.18 pmol/s.
